Assay in all cases: MIC / FIC synergy test in 96-well microplate, optical density at 620 nm
Type in all cases: cell-based
What all share (conditions): for microbial growth percentage: weight %

Experiment [1] relates to Aspergillus niger ATCC 6275. From the text: (§1) FIC Index=(MIC of A with B/MIC of A)+(MIC of B with A/MIC of B)
(§2) with: • MIC of A with B: minimum concentration of product A in the combination A+B which makes it possible to obtain an inhibitory effect; • MIC of B with A: minimum concentration of product B in the combination A+B which makes it possible to obtain an inhibitory effect; • MIC of A: minimum inhibitory concentration of product A alone; • MIC of B: minimum inhibitory concentration of product B alone.
(§3) As regards the combinations tested, MIC of A with B and MIC of B with A are the respective concentrations of A and of B in the combinations which make it possible to obtain a microbial growth percentage of less than or equal to 20%.
(§4) When the FIC index value is less than or equal to 1, it is considered that the combination of test compounds has a synergistic effect.
The microbial strain Aspergillus niger ATCC 6275, and a double-concentration Sabouraud broth liquid culture medium supplemented with polyoxyethylenated (20 OE) sorbitan monopalmitate (Tween 40 from Croda) and Phytagel© BioReagent were used (i.e. a mixture of 5 g of Phytagel+0.6 g Tween 40+60 g of Sabouraud broth).
(§5) A 96-well microplate and an incubation temprature of 32.5° C. are used.
(§6) The incubation time of the microplate is: • from 18 to 24 h under aerobic conditions for Candida albicans ATCC 10231, Pseudomonas aeruginosa ATCC 9027 and Staphylococcus aureus ATCC 6538; • from 24 to 30 h under aerobic conditions for microbial Aspergillus niger ATCC 6275; • from 24 to 48 h under aerobic conditions for Enterococcus faecalis ATCC 33186.
(§7) A 10% (weight/volume) stock solution was prepared by mixing 1 g of compound in 9 ml of aqueous 1‰ agar solution. Successive dilutions were made with the 1‰ agar solution.
(§8) 50 μl of each of the daughter solutions obtained containing compound A or B are added to the microplate wells. 100 μl of Sabouraud liquid nutrient broth inoculated at double concentration with the Aspergillus niger strain and 50 μl of aqueous 1‰ agar solution are also added thereto.
(§9) 50 μl of each of the daughter solutions obtained containing compound A and 50 μl of each of the daughter solutions obtained containing compound B are added to the microplate wells. 100 μl of Sabouraud liquid nutrient broth inoculated at double concentration with the strain Aspergillus niger are also added thereto.
(§10) A positive microbial growth control was also prepared. The positive microbial growth control corresponds to a mixture of 100 μl of aqueous 1‰ agar solution with 100 μl of Sabouraud liquid nutrient broth inoculated at double concentration with the strain Aspergillus niger in the absence of compounds A and B.
(§11) An absorbance control was performed in parallel on compounds A and B alone. This control corresponds to 100 μl of double concentration sterile Sabouraud liquid nutrient broth+100 μl of double concentration compound A or B.
(§12) In the three cases (absorbance control, growth control and test), the final volume present in each of the microplate wells is 200 μl.
In the two cases (test and control), the inoculum represents the concentration of the Aspergillus niger strain present in the final volume of the wells (200 μl) and is between 2 and 6×10^5 cfu/ml of Aspergillus niger.

Experiment [2] deals with Enterococcus faecalis ATCC 33186.
From the text: as §1, §2, §3, §4
The microbial strain Enterococcus faecalis ATCC 33186 and a double-concentration BHI (Brain Heart Infusion) broth liquid culture medium were used.
as §5, §6, §7, §8, §9, §10, §11, §12
(§13) The test as described above (tests, absorbance control and growth control) was performed again to test the combination A+B on the following strains Enterococcus faecalis, Staphylococcus aureus, Pseudomonas aeruginosa, Candida albicans.

Experiment [3] deals with Staphylococcus aureus ATCC 6538.
From the text: as §1, §2, §3, §4
The microbial strain Staphylococcus aureus ATCC 6538 and a double-concentration nutrient broth liquid culture medium were used.
as §5, §6, §7, §8, §9, §10, §11, §12, §13

The subject of experiment [4] is Pseudomonas aeruginosa ATCC 9027.
From the text: as §1, §2, §3, §4
The microbial strain Pseudomonas aeruginosa ATCC 9027 and a double-concentration nutrient broth liquid culture medium were used.
as §5, §6, §7, §8, §9, §10, §11, §12, §13

For experiment [5], the system named is Candida albicans ATCC 10231.
From the text: as §1, §2, §3, §4
The microbial strain Candida albicans ATCC 10231 and a double-concentration Sabouraud broth liquid culture medium were used.
as §5, §6, §7, §8, §9, §10, §11, §12, §13

Setting [6] is: Example 1, first concentration giving growth <= 20%.
Where [7] appears, read: Example 5, first concentration giving growth <= 20%.
[8] abbreviates: first concentration giving growth <= 20%.

Molecules are shown by their SMILES.

In the case of `CCOc1cc(CCC(C)=O)ccc1O` [A, 4-(3-ethoxy-4-hydroxyphenyl)butan-2-one], the microbial growth percentage came out at 85% in experiment [1] (0.0625 A alone, Example 1); 86% in experiment [1] (0.0625 A alone, Example 5); 47% in experiment [1] (0.125 A alone, Example 1); 41% in experiment [1] (0.125 A alone, Example 5); 7% in experiment [1] (0.25 A alone, Example 1); 6% in experiment [1] (0.25 A alone, Example 5). Besides, the microbial growth percentage in experiment [2] (0.0625 A alone, Example 1) is given as 82%; in experiment [2] (0.0625 A alone, Example 5) it was 78%; in experiment [2] (0.0625 A alone, Example 6), 42%; in experiment [2] (0.125 A alone, Example 1) it was 89%; in experiment [2] (0.125 A alone, Example 5), 86%; in experiment [2] (0.125 A alone, Example 6), 42%. In addition, the microbial growth percentage in experiment [2] (0.25 A alone, Example 1) turned out to be 89%; in experiment [2] (0.25 A alone, Example 5), 92%; in experiment [2] (0.25 A alone, Example 6) it was 33%; in experiment [2] (0.5 A alone, Example 1), 75%; in experiment [2] (0.5 A alone, Example 5), 72%; in experiment [2] (0.5 A alone, Example 6), 34%. Moreover, the microbial growth percentage in experiment [2] (1 A alone, Example 1) came to 13%; in experiment [2] (1 A alone, Example 5), 4%; in experiment [2] (1 A alone, Example 6) it was 24%; in experiment [3] (0.0625 A alone) it was 71%; in experiment [3] (0.125 A alone), 57%; in experiment [3] (0.25 A alone), 52%. The microbial growth percentage is reported as 1% in experiment [3] (0.5 A alone); 49% in experiment [4] (0.0625 A alone); 82% in experiment [4] (0.125 A alone); 116% in experiment [4] (0.25 A alone); 67% in experiment [4] (0.5 A alone); −4% in experiment [4] (1 A alone). Also, the microbial growth percentage in experiment [5] (0.025 A alone, Example 1) is 48%; in experiment [5] (0.025 A alone, Example 3), 85%; in experiment [5] (0.025 A alone, Example 6) it was 69%; in experiment [5] (0.05 A alone, Example 1), 29%; in experiment [5] (0.05 A alone, Example 3), 64%; in experiment [5] (0.05 A alone, Example 6), 63%. For the same compound, the microbial growth percentage in experiment [5] (0.1 A alone, Example 1) is reported as 16%; in experiment [5] (0.1 A alone, Example 3) it was 25%; in experiment [5] (0.1 A alone, Example 6), 38%; in experiment [5] (0.2 A alone, Example 3) it was 3%; in experiment [5] (0.2 A alone, Example 6), 4%. Further, the “% MIC of A alone” value in experiment [1] (setting [6]) was found to be 0.25%; in experiment [1] (setting [7]) it was 0.25%; in experiment [2] (setting [6]) it was 1%; in experiment [2] (setting [7]) it was 1%; in experiment [2] (Example 6), 1%; in experiment [3] (setting [8]), 0.5%. Further, the “% MIC of A alone” value was 1% in experiment [4] (setting [8]); 0.1% in experiment [5] (setting [6]); 0.2% in experiment [5] (Example 6, first concentration giving growth <= 20%). Further, in experiment [5] (A alone, Example 3, first concentration giving growth <= 20%), the “% MIC A” value is 0.2%.

Consider `OCCOc1ccccc1` [B1, 2-phenoxyethanol], for which the microbial growth percentage worked out at 95% in experiment [1] (0.0625 B1 alone); 89% in experiment [1] (0.125 B1 alone); 8% in experiment [1] (0.25 B1 alone); 87% in experiment [2] (0.0625 B1 alone); 86% in experiment [2] (0.125 B1 alone); 84% in experiment [2] (0.25 B1 alone). Also, the microbial growth percentage is reported as 80% in experiment [2] (0.5 B1 alone); 6% in experiment [2] (1 B1 alone); 66% in experiment [3] (0.0625 B1 alone); 73% in experiment [3] (0.125 B1 alone); 58% in experiment [3] (0.25 B1 alone); 1% in experiment [3] (0.5 B1 alone). Further, the microbial growth percentage was found to be 45% in experiment [4] (0.0625 B1 alone); 39% in experiment [4] (0.125 B1 alone); 39% in experiment [4] (0.25 B1 alone); 0% in experiment [4] (0.5 B1 alone); 0% in experiment [4] (1 B1 alone); 44% in experiment [5] (0.0625 B1 alone). For the same compound, the figures for the microbial growth percentage in experiment [5] (0.125 B1 alone) and in experiment [5] (0.25 B1 alone) were 22% and 2%, respectively. The “% MIC of B1 alone” value in experiment [1] (setting [8]) is given as 0.25%; in experiment [2] (setting [8]) it was 1%; in experiment [3] (setting [8]), 0.5%; in experiment [4] (setting [8]), 0.5%; in experiment [5] (setting [8]) it was 0.25%.

As for `OCCc1ccccc1` [B2, phenylethyl alcohol], the microbial growth percentage in experiment [5] (0.125 B2 alone) stood at 41%; in experiment [5] (0.25 B2 alone), 7%. In experiment [5] (B2 alone, first concentration giving growth <= 20%), the “MIC B2” value is reported as 0.25%.

For the compound `OCc1ccccc1` [B3, benzyl alcohol], the microbial growth percentage in experiment [1] (0.0125 B3 alone) is listed as 94%; in experiment [1] (0.25 B3 alone), 31%; in experiment [1] (0.5 B3 alone), 1%; in experiment [2] (0.25 B3 alone) it was 77%; in experiment [2] (0.5 B3 alone), 30%; in experiment [2] (1 B3 alone) it was 3%. The “% MIC of B3 alone” value in experiment [1] (setting [8]) was found to be 0.5%; in experiment [2] (setting [8]) it was 1%.

On to `Cc1cc(O)ccc1C(C)C` [B4, 4-isopropyl-3-methylphenol], for which the “% MIC of B4 alone” value in experiment [2] is on record as 0.1%; in experiment [5] (setting [8]), 0.04%. Also, the microbial growth percentage in experiment [2] (0.0125 B4 alone) was determined as 45%; in experiment [2] (0.025 B4 alone), 44%; in experiment [2] (0.05 B4 alone) it was 27%; in experiment [2] (0.1 B4 alone) it was 23%; in experiment [5] (0.0025 B4 alone), 87%; in experiment [5] (0.005 B4 alone) it was 82%. In addition, the microbial growth percentage in experiment [5] (0.01 B4 alone) was found to be 73%; in experiment [5] (0.02 B4 alone), 35%; in experiment [5] (0.04 B4 alone) it was 1%.
